Read-outs that look alike come from different tables or passages of the source.
Key:
HBV = assay: anti HBV activity, HepG2.117 cell line, intracellular HBV DNA by realtime PCR; type: cell-based; details: HepG2.117 cell line (Tet-off), 3 days of treatment, intracellular HBV DNA quantified by realtime PCR, read-out: HBV-AVE-HepG2.117 EC50
Description: The anti HBV activity was measured using the HepG2.117 cell line, a stable, inducibly HBV producing cell line, which replicates HBV in the absence of doxicycline (Tet-off system). For the antiviral assay, HBV replication was induced, followed by a treatment with serially diluted compound in 96-well plates in duplicate. After 3 days of treatment, the antiviral activity was determined by quantification of intracellular HBV DNA using realtime PCR and an HBV specific primer set and probe.

[1] = Cytotoxicity in HepG2 cells, Resazurin assay; details: human, HepG2 cells, TOX-HepG2-4 d CC50 (μM), HepG2 cells incubated for 4 days, viability by Resazurin assay
[2] = Hepatitis B virus, HepG2.117, 72 h

| SMILES | EC50 (HBV) [nM] | CC50 at 4 days [1] [µM] | EC50 (HBV; [2]) [nM] |
| --- | --- | --- | --- |
| CC1CCc2c(cn(C)c2C(=O)Nc2ccc(F)c(F)c2)S(=O)(=O)N1 (single isomer, unassigned) [Compound 10a, N-(3,4-difluorophenyl)-3,7-dimethyl-1,1-dioxo-2,3,4,5-tetrahydropyrrolo[3,4-f]thiazepine-6-carboxamide] | 220 | > 25 | – |
| CC(C)[C@H]1Oc2c(cn(C)c2C(=O)Nc2ccc(F)c(F)c2)S(=O)(=O)N[C@@H]1CO [compound 240] | – | > 25 | > 250 |
| Cn1cc2c(c1C(=O)Nc1ccnc(C(F)(F)F)c1)CCC(C(F)(F)F)NS2(=O)=O (single isomer, unassigned) [Compound 59a, 7-methyl-1,1-dioxo-3-(trifluoromethyl)-N-[2-(trifluoromethyl)-4-pyridyl]-2,3,4,5-tetrahydropyrrolo[3,4-f]thiazepine-6-carboxamide] | > 500 | > 25 | – |
| Cn1cc2c(c1C(=O)Nc1ccnc(C(F)(F)F)c1)C=CC(C(F)(F)F)NS2(=O)=O (stereo not shown) [Compound 58, 7-methyl-1,1-dioxo-3-(trifluoromethyl)-N-[2-(trifluoromethyl)-4-pyridyl]-2,3-dihydropyrrolo[3,4-f]thiazepine-6-carboxamide] | – | > 25 | 290 |
| C[C@H]1CCc2c(cn(C)c2C(=O)Nc2ccnc(Br)c2)S(=O)(=O)N1 (single isomer, unassigned) [Compound 57, (3*S)—N-(2-bromo-4-pyridyl)-3,7-dimethyl-1,1-dioxo-2,3,4,5-tetrahydropyrrolo[3,4-f]thiazepine-6-carboxamide] | – | > 25 | 13 |
| Cn1cc2c(c1C(=O)Nc1ccc(F)c(C(F)F)c1)OC[C@H](C(O)C1CC1)NS2(=O)=O (stereo partly drawn) [Compound 115a, (3R)-3-[cyclopropyl(hydroxy)methyl]-N-[3-(difluoromethyl)-4-fluoro-phenyl]-7-methyl-1,1-dioxo-3,4-dihydro-2H-pyrrolo[3,4-b][1,4,5]oxathiazepine-6-carboxamide] | – | > 25 | 8 |
| C[C@H]1CCc2c(cn(C)c2C(=O)Nc2cc(F)c(F)c(F)c2)S(=O)(=O)N1 (single isomer, unassigned) [Compound 39, (3*S)-3,7-dimethyl-1,1-dioxo-N-(3,4,5-trifluorophenyl)-2,3,4,5-tetrahydropyrrolo[3,4-f]thiazepine-6-carboxamide] | – | > 25 | 3 |
| C[C@@H]1NS(=O)(=O)c2cn(C)c(C(=O)Nc3ccc(F)c(F)c3)c2O[C@H]1C [compound 229] | – | > 25 | > 500 |
| CC(C)[C@@H]1COc2c(cn(C)c2C(=O)Nc2ccc(F)c(F)c2)S(=O)(=O)N1 [Compound 27, (3R)—N-(3,4-difluorophenyl)-3-isopropyl-7-methyl-1,1-dioxo-3,4-dihydro-2H-pyrrolo[3,4-b][1,4,5]oxathiazepine-6-carboxamide] | – | > 25 | 110 |
| Cn1ccc(CC2(C)COc3c(cn(C)c3C(=O)Nc3ccnc(C(F)F)c3)S(=O)(=O)N2)n1 (single isomer, unassigned) [Compound 217a, N-[2-(difluoromethyl)-4-pyridyl]-3,7-dimethyl-3-[(1-methylpyrazol-3-yl)methyl]-1,1-dioxo-2,4-dihydropyrrolo[3,4-b][1,4,5]oxathiazepine-6-carboxamide] | 25 | > 25 | – |
| Cn1cc2c(c1C(=O)Nc1ccnc(C(F)F)c1)OCC(C)(CO)NS2(=O)=O (single isomer, unassigned) [Compound 215a, N-[2-(difluoromethyl)-4-pyridyl]-3-(hydroxymethyl)-3,7-dimethyl-1,1-dioxo-2,4-dihydropyrrolo[3,4-b][1,4,5]oxathiazepine-6-carboxamide] | 62 | > 25 | – |
| C[C@H]1CCc2c(cn(C)c2C(=O)Nc2ccc(F)c(C(F)(F)F)c2)S(=O)(=O)N1 (single isomer, unassigned) [Compound 40, (3*S)—N-[4-fluoro-3-(trifluoromethyl)phenyl]-3,7-dimethyl-1,1-dioxo-2,3,4,5-tetrahydropyrrolo[3,4-f]thiazepine-6-carboxamide] | – | > 25 | 22 |
| CCC1(C)COc2c(cn(C)c2C(=O)Nc2ccc(F)c(F)c2)S(=O)(=O)N1 (single isomer, unassigned) [Compound 134a, N-(3,4-difluorophenyl)-3-ethyl-3,7-dimethyl-1,1-dioxo-2,4-dihydropyrrolo[3,4-b][1,4,5]oxathiazepine-6-carboxamide] | – | > 25 | 8 |
| CC(NCC(F)(F)F)C1CCc2c(cn(C)c2C(=O)Nc2cc(F)c(F)c(F)c2)S(=O)(=O)N1 (single isomer, unassigned) [Compound 218a, 7-methyl-1,1-dioxo-3-[1-(2,2,2-trifluoroethylamino)ethyl]-N-(3,4,5-trifluorophenyl)-2,3,4,5-tetrahydropyrrolo[3,4-f]thiazepine-6-carboxamide] | – | > 25 | > 125 |
| Cn1cc2c(c1C(=O)Nc1ccc(F)c(F)c1)OCC(C)(c1cnccn1)NS2(=O)=O (racemic) [Compound 145, N-(3,4-difluorophenyl)-3,7-dimethyl-1,1-dioxo-3-pyrazin-2-yl-2,4-dihydropyrrolo[3,4-b][1,4,5]oxathiazepine-6-carboxamide] | – | > 25 | 37 |
| Cn1cc2c(c1C(=O)Nc1ccc(F)c(C#N)c1)OC[C@](C)(Cc1ccccc1)NS2(=O)=O [Compound 156, (3S)-3-benzyl-N-(3-cyano-4-fluoro-phenyl)-3,7-dimethyl-1,1-dioxo-2,4-dihydropyrrolo[3,4-b][1,4,5]oxathiazepine-6-carboxamide] | – | > 25 | 9 |
| CC(C)[C@H]1COc2c(ccc(F)c2C(=O)Nc2ccc(F)c(F)c2)S(=O)(=O)N1 [Compound 44, (3S)—N-(3,4-difluorophenyl)-7-fluoro-3-isopropyl-1,1-dioxo-3,4-dihydro-2H-5,1λ^6,2-benzoxathiazepine-6-carboxamide] | – | > 25 | 170 |
| Cn1cc2c(c1C(=O)Nc1cc(F)c(F)c(F)c1)CCC(C(C)(C)O)NS2(=O)=O (single isomer, unassigned) [Compound 149a, 3-(1-hydroxy-1-methyl-ethyl)-7-methyl-1,1-dioxo-N-(3,4,5-trifluorophenyl)-2,3,4,5-tetrahydropyrrolo[3,4-f]thiazepine-6-carboxamide] | > 125 | > 25 | – |
| Cn1cc2c(c1C(=O)Nc1ccc(F)c(F)c1)OC[C@H](Cc1cccnc1)NS2(=O)=O [Compound 38, (3S)—N-(3,4-difluorophenyl)-7-methyl-1,1-dioxo-3-(3-pyridylmethyl)-3,4-dihydro-2H-pyrrolo[3,4-b][1,4,5]oxathiazepine-6-carboxamide] | – | > 25 | 5 |
| Cc1cc(CC2(C)COc3c(cn(C)c3C(=O)Nc3cc(F)c(F)c(F)c3)S(=O)(=O)N2)no1 (single isomer, unassigned) [Compound 170a, 3,7-dimethyl-3-[(5-methylisoxazol-3-yl)methyl]-1,1-dioxo-N-(3,4,5-trifluorophenyl)-2,4-dihydropyrrolo[3,4-b][1,4,5]oxathiazepine-6-carboxamide] | – | > 25 | – |
| Cn1cc2c(c1C(=O)Nc1ccc(F)c(F)c1)OCC(C)(C)NS2(=O)=O [Compound 133, N-(3,4-difluorophenyl)-3,3,7-trimethyl-1,1-dioxo-2,4-dihydropyrrolo-[3,4-b][1,4,5]oxathiazepine-6-carboxamide] | – | > 25 | 11 |
| CN1CCC(C2COc3c(cn(C)c3C(=O)Nc3ccc(F)c(F)c3)S(=O)(=O)N2)CC1 (stereo not shown) [Compound 76, N-(3,4-difluorophenyl)-7-methyl-3-(1-methyl-4-piperidyl)-1,1-dioxo-3,4-dihydro-2H-pyrrolo[3,4-b][1,4,5]oxathiazepine-6-carboxamide] | – | > 25 | 220 |
| CC1/C=C\Cc2c(cn(C)c2C(=O)Nc2ccc(F)c(F)c2)S(=O)(=O)N1 (stereo not shown) [Compound 5, (4Z)—N-(3,4-difluorophenyl)-3,8-dimethyl-1,1-dioxo-3,6-dihydro-2H-pyrrolo[3,4-g]thiazocine-7-carboxamide] | – | > 25 | 180 |
| Cc1cc(C2(C)COc3c(cn(C)c3C(=O)Nc3ccc(F)c(C(F)F)c3)S(=O)(=O)N2)no1 (racemic) [Compound 181, N-[3-(difluoromethyl)-4-fluoro-phenyl]-3,7-dimethyl-3-(5-methylisoxazol-3-yl)-1,1-dioxo-2,4-dihydropyrrolo[3,4-b][1,4,5]oxathiazepine-6-carboxamide] | – | > 25 | 8 |
| Cn1cc2c(c1C(=O)Nc1ccc(F)c(F)c1)C=CC(C)(Cc1ccc(Cl)nc1)NS2(=O)=O (stereo not shown) [Compound 219, 3-[(6-chloro-3-pyridyl)methyl]-N-(3,4-difluorophenyl)-3,7-dimethyl-1,1-dioxo-2H-pyrrolo[3,4-f]thiazepine-6-carboxamide] | – | > 25 | – |
| Cc1cccc(C2(C)COc3c(cn(C)c3C(=O)Nc3ccc(F)c(C(F)F)c3)S(=O)(=O)N2)n1 (single isomer, unassigned) [Compound 177a, N-[3-(difluoromethyl)-4-fluoro-phenyl]-3,7-dimethyl-3-(6-methyl-2-pyridyl)-1,1-dioxo-2,4-dihydropyrrolo[3,4-b][1,4,5]oxathiazepine-6-carboxamide] | – | > 25 | – |

— US10875876B2, “Cyclized sulfamoylarylamide derivatives and the use thereof as medicaments for the treatment of hepatitis B” (priority 2015, dated 2020)
